# Measured values reported in patent US11224243B2, “Taste-modifying combinations” (FIRMENICH SA, priority 2012, dated 2022).
# Assays:
# umami taste [1] = experiment: Umami intensity and liking of amide 1, an ingredient and their blend in hot mineral water, trained panel; type: in vivo, human
# Protocol: Pat. No. 7,807,206 (containing Rebaudioside A and stevioside), sea salt, succinic acid, yeast extract, hydrolyzed corn protein, or hydrolyzed wheat gluten) and a blend of the amide with the ingredient were weighed and hot mineral water was added to each sample according to the dosages indicated in each experiments. The samples were stirred in order to ensure the solubilisation of the ingredients. Each sample was coded, and tasted in a random order by 5 trained panelists. […] The panelists were also asked to describe the samples.
# umami taste [2] = experiment: Evaluation of amides 1 and 4 in a pork flavor, trained panel; type: in vivo, human; conditions: amide at 20 ppm in pork flavor; scale 0 to 10; 5 panelists; pork flavor alone = 4.5
# Protocol: 3) Evaluation of Amides 1 and 4 in a Pork Flavor
# Amides 1 and 4 were evaluated at 20 ppm by 5 trained panelists in a pork flavor on a blind test basis as described above.
# [3] = Table 10, scale 1-10, MSG 0.04%, Amide 1 20 ppm, glucosylated stevosides 8 ppm, blend 20 ppm + 8 ppm
# [4] = Table 11, scale 1-10, MSG 0.04%, Amide 1 20 ppm, Sea Salt 0.03%, blend 20 ppm + 0.03%
# [5] = Table 12, scale 1-10, MSG 0.04%, Amide 1 20 ppm, Succinic acid 36 ppm, blend 20 ppm + 36 ppm
# [6] = Table 13, scale 1-10, MSG 0.04%, Amide 1 20 ppm, Yeast extract 60 ppm, blend 20 ppm + 60 ppm
# [7] = Table 14, scale 1-10, MSG 0.04%, Amide 1 20 ppm, Yeast extract 175 ppm, blend 20 ppm + 175 ppm
# [8] = Table 15, scale 1-10, MSG 0.04%, Amide 1 10 ppm, Yeast extract 60 ppm, blend 10 ppm + 60 ppm
# [9] = Table 16, scale 1-10, MSG 0.04%, Amide 1 20 ppm, Hydrolized corn protein 40 ppm, blend 20 ppm + 40 ppm
# [10] = Table 17, scale 1-10, MSG 0.04%, Amide 1 20 ppm, Hydrolized corn protein 320 ppm, blend 20 ppm + 320 ppm
# [11] = Table 18, scale 1-10, MSG 0.04%, Amide 1 20 ppm, Hydrolized wheat gluten 100 ppm, blend 20 ppm + 100 ppm
# [12] = Table 19, scale 1-10, MSG 0.04%, Amide 1 10 ppm, Nature Pep 971481 100 ppm, blend 10 ppm + 100 ppm
Compound,Umami (umami taste [1]; [3]),Umami (umami taste [1]; [4]),Umami (umami taste [1]; [5]),Umami (umami taste [1]; [6]),Umami (umami taste [1]; [7]),Umami (umami taste [1]; [8]),Umami (umami taste [1]; [9]),Umami (umami taste [1]; [10]),Umami (umami taste [1]; [11]),Umami (umami taste [1]; [12]),Umami intensity (umami taste [2])
"N[C@@H](CCC(=O)O)C(=O)[O-].[Na+] [MSG, monosodium glutamate, reference compound]",5.8,5.8,4.2,5.5,5.5,4.0,5.4,3.0,5.5,7.2,–
"COc1cccc(CCNC(=O)/C=C/c2ccc(OC)c(OC)c2)c1 [Amide 4, (E)-3-(3,4-dimethoxyphenyl)-N-(3-methoxyphenethyl)acrylamide]",–,–,–,–,–,–,–,–,–,–,7
"O=C(O)CCC(=O)O [Succinic acid, succinic acid]",–,–,1.0,–,–,–,–,–,–,–,–
"COc1ccc(CCNC(=O)/C=C/c2ccc(OC)c(OC)c2)cc1 [Amide 1, (E)-3-(3,4-dimethoxyphenyl)-N-(4-methoxyphenethyl)acrylamide]",4.8,3.3,3.7,4.5,4.5,2.5,4.2,1.7,4.0,3.7,6
